{
  "source": "paper PMC5889475",
  "about": "(Biochimie Open, 2015)",
  "molecular_target": "T1, His-GlNMNAT (GlNMNAT, GlNMNAT-A) (Giardia duodenalis, UniProt A8BW22)",
  "T1 sequence (A8BW22 1-227)": "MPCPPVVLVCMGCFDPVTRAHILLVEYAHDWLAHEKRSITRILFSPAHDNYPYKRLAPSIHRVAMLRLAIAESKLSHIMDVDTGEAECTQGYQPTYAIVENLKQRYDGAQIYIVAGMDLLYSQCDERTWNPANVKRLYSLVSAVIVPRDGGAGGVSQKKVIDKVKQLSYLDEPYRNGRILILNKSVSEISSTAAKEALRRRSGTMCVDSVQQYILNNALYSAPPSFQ",
  "experiment": "C18-HPLC of NAAD formation",
  "format": "biochemical",
  "settings": "ATP 10 mM; NAMN 0.25-12 mM",
  "data": [
    {"smiles": "O=C([O-])c1ccc[n+]([C@@H]2O[C@H](COP(=O)(O)O)[C@@H](O)[C@H]2O)c1", "note": "[NAMN]", "values": [
      {"measurement": "C18-HPLC of NAAD formation", "result": "for NAMN saturation was not observed, implying that the enzyme has low affinity yet detectable"}
    ]}
  ]
}
